Results from ChEMBL document CHEMBL6134780, “Halogenated retinoid derivatives as dual RARα and RXRα modulators for treating acute promyelocytic leukemia cells” (Eur J Med Chem, 2024).
Each block holds one molecule with its values, some of them ahead of it. Calls of active or inactive are those of the source. No cut-off for these calls is given here.

Assays:
NB-4 [1] = test: Cell cycle arrest in human NB4 cells transfected with pLVX-shRXRalpha plasmid assessed as accumulation of cells at G0/G1 phase at 2 uM incubated for 12 hrs by DAPI staining based flow cytometric analysis (reference value: 53 %); assay type: functional
[2] = Cell cycle arrest in human ATRA-resistant NB4-LR2 cells assessed as accumulation of cells at G2/M phase at 2 uM incubated for 24 hrs by DAPI staining based flow cytometric analysis (reference value: 25 %); assay type: functional
NB-4 [3] = test: Cell cycle arrest in human NB4 cells transfected with pLVX-shPML-RARalpha plasmid assessed as accumulation of cells at G2/M phase at 1 uM incubated for 12 hrs by DAPI staining based flow cytometric analysis (reference value: 22 %); assay type: functional
NB-4 [4] = test: Cell cycle arrest in human NB4 cells transfected with pLVX-shRNA2-negative control assessed as accumulation of cells at S phase at 2 uM incubated for 12 hrs by DAPI staining based flow cytometric analysis (reference value: 26 %); assay type: functional
NB-4 [5] = test: Cell cycle arrest in human NB4 cells assessed as accumulation of cells at G0/G1 phase at 2 uM incubated for 24 hrs by DAPI staining based flow cytometric analysis (reference value: 48 %); assay type: functional
[6] = Cell cycle arrest in human ATRA-resistant NB4-LR2 cells assessed as accumulation of cells at S phase at 1 uM incubated for 12 hrs by DAPI staining based flow cytometric analysis (reference value: 12 %); assay type: functional
NB-4 [7] = test: Cell cycle arrest in human NB4 cells assessed as accumulation of cells at G0/G1 phase at 2 uM incubated for 12 hrs by DAPI staining based flow cytometric analysis (reference value: 56 %); assay type: functional
ATRA-resistant NB4-LR2 = test: Cell cycle arrest in human ATRA-resistant NB4-LR2 cells transfected with pLVX-shRXRalpha assessed as increase in PLK1 expression at 1 uM incubated for 12 hrs by Western blot analysis; assay type: functional, cell-based
[8] = Cell cycle arrest in human ATRA-resistant NB4-LR2 cells assessed as accumulation of cells at S phase at 1 uM incubated for 24 hrs by DAPI staining based flow cytometric analysis (reference value: 21 %); assay type: functional
[9] = Cell cycle arrest in human ATRA-resistant NB4-LR2 cells assessed as accumulation of cells at S phase at 2 uM incubated for 12 hrs by DAPI staining based flow cytometric analysis (reference value: 19 %); assay type: functional
NB-4 [10] = test: Cell cycle arrest in human NB4 cells assessed as accumulation of cells at S phase at 2 uM incubated for 3 hrs by DAPI staining based flow cytometric analysis (reference value: 20 %); assay type: functional
NB-4 [11] = test: Cell cycle arrest in human NB4 cells assessed as accumulation of cells at G2/M phase at 0.5 uM incubated for 24 hrs by DAPI staining based flow cytometric analysis (reference value: 23 %); assay type: functional
[12] = Induction of apoptosis in human ATRA-resistant NB4-LR2 cells assessed as late apoptotic cells at 1 uM incubated for 24 hrs by Annexin V-FITC/PI staining based flow cytometric analysis (reference value: 5.62 %); assay type: functional
NB-4 [13] = test: Cell cycle arrest in human NB4 cells assessed as accumulation of cells at G2/M phase at 1 uM incubated for 12 hrs by DAPI staining based flow cytometric analysis (reference value: 26 %); assay type: functional
NB-4 [14] = test: Cell cycle arrest in human NB4 cells assessed as accumulation of cells at G0/G1 phase at 2 uM incubated for 3 hrs by DAPI staining based flow cytometric analysis (reference value: 56 %); assay type: functional
[15] = Cell cycle arrest in human ATRA-resistant NB4-LR2 cells assessed as accumulation of cells at G0/G1 phase at 2 uM incubated for 12 hrs by DAPI staining based flow cytometric analysis (reference value: 57 %); assay type: functional
[16] = Cell cycle arrest in human ATRA-resistant NB4-LR2 cells assessed as accumulation of cells at G2/M phase at 1 uM incubated for 12 hrs by DAPI staining based flow cytometric analysis (reference value: 28 %); assay type: functional
[17] = molecular target: T1, Retinoic acid receptor alpha (Homo sapiens, UniProt P10276); test: Binding affinity to N-terminal His-tagged human RARalpha LBD extracted from Escherichia coli BL21 (DE3) cells assessed as dissociation constant by ITC analysis
T1 sequence (P10276 whole entry): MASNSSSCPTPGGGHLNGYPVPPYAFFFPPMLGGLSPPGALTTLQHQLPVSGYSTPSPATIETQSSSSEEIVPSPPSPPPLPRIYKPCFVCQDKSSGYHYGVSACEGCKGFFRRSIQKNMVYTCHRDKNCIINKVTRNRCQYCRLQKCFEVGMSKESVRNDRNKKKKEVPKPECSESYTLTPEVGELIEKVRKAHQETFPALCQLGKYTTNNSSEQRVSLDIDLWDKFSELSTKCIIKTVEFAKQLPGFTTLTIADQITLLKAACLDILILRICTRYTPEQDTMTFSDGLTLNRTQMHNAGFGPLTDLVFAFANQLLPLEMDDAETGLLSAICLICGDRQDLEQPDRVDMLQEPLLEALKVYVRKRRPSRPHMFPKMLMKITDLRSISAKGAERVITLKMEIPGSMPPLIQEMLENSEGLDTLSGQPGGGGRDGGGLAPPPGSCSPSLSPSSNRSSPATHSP

NB-4 [18] = test: Cell cycle arrest in human NB4 cells transfected with pLVX-shRNA2-negative control assessed as accumulation of cells at sub-G1 phase at 1 uM incubated for 12 hrs by DAPI staining based flow cytometric analysis (reference value: 4 %); assay type: functional
[19] = Cell cycle arrest in human ATRA-resistant NB4-LR2 cells assessed as accumulation of cells at sub-G1 phase at 2 uM incubated for 12 hrs by DAPI staining based flow cytometric analysis (reference value: 9 %); assay type: functional
[20] = Cell cycle arrest in human ATRA-resistant NB4-LR2 cells assessed as accumulation of cells at sub-G1 phase at 2 uM incubated for 24 hrs by DAPI staining based flow cytometric analysis (reference value: 12 %); assay type: functional
NB-4 [21] = test: Cell cycle arrest in human NB4 cells transfected with pLVX-shRNA2-negative control assessed as accumulation of cells at G2/M phase at 2 uM incubated for 12 hrs by DAPI staining based flow cytometric analysis (reference value: 24 %); assay type: functional
NB-4 [22] = test: Cell cycle arrest in human NB4 cells assessed as accumulation of cells at sub-G1 phase at 0.5 uM incubated for 24 hrs by DAPI staining based flow cytometric analysis (reference value: 3 %); assay type: functional
[23] = Cell cycle arrest in human ATRA-resistant NB4-LR2 cells assessed as accumulation of cells at G0/G1 phase at 1 uM incubated for 12 hrs by DAPI staining based flow cytometric analysis (reference value: 42 %); assay type: functional
NB-4 [24] = test: Cell cycle arrest in human NB4 cells transfected with pLVX-shPML-RARalpha plasmid assessed as accumulation of cells at S phase at 1 uM incubated for 12 hrs by DAPI staining based flow cytometric analysis (reference value: 19 %); assay type: functional
NB-4 [25] = test: Cell cycle arrest in human NB4 cells assessed as accumulation of cells at G2/M phase at 2 uM incubated for 3 to 12 hrs by DAPI staining based flow cytometric analysis; assay type: functional; settings: time 3-12 hrs

Kd [17]: 1.08 µM
SMILES: Cc1cc2c(cc1C(=O)/C(Br)=C/c1ccc(C(=O)O)cc1)C(C)(C)CCC2(C)C
Activity (NB-4 [1]): 40% | Activity [2]: 23% | Activity (NB-4 [3]): 27% | Activity (NB-4 [4]): 18% | Activity (NB-4 [5]): 35% | Activity [6]: 16% | Activity (NB-4 [7]): 11% | Activity (ATRA-resistant NB4-LR2): inactive | Activity [8]: 18% | Activity [9]: 10% | Activity (NB-4 [10]): 21% | Activity (NB-4 [11]): 26% | Activity [12]: 20.28% | Activity (NB-4 [13]): 61% | Activity (NB-4 [14]): 48% | Activity [15]: 36% | Activity [16]: 52% | Activity (NB-4 [18]): 7% | Activity [19]: 32% | Activity [20]: 21% | Activity (NB-4 [21]): 44% | Activity (NB-4 [22]): 5% | Activity [23]: 10% | Activity (NB-4 [24]): 21%

SMILES: Cc1cc2c(cc1C(=O)/C(Br)=C\c1ccc(C(=O)O)cc1)C(C)(C)CCC2(C)C
Activity (NB-4 [25]): Active
